In ChEMBL document CHEMBL1201862, “PubChem BioAssay data set” (2004):
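The compound was tested at five concentrations on cells cultured in 96-well plates, with a 48-hour exposure period. Abbreviation: GI50, concentration required for 50% inhibition of growth.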 Active and inactive are the calls of the source. Rule as the data show it: active = GI50 up to about 1.1 µM and inactive = higher.

What was measured:
Assay in all cases: NCI-60 cell line screen, 48 h
[1] = tested on: 786-0
[2] = tested on: A549
[3] = tested on: ACHN
[4] = tested on: BT-549
[5] = tested on: CAKI-1
[6] = tested on: CCRF-CEM
[7] = tested on: COLO 205
[8] = tested on: DU-145
[9] = tested on: EKVX
[10] = tested on: HCC 2998
[11] = tested on: HCT-116
[12] = tested on: HCT-15
[13] = tested on: HL-60
[14] = tested on: HOP-62
[15] = tested on: HOP-92
[16] = tested on: HT-29
[17] = tested on: Hs-578T
[18] = tested on: IGROV-1
[19] = tested on: K562
[20] = tested on: KM12
[21] = tested on: LOX IMVI
[22] = tested on: M14
[23] = tested on: MCF7
[24] = tested on: MDA-MB-231
[25] = tested on: MDA-MB-435
[26] = tested on: MDA-N
[27] = tested on: MOLT-4
[28] = tested on: Malme-3M
[29] = tested on: NCI-H226
[30] = tested on: NCI-H23
[31] = tested on: NCI-H460
[32] = tested on: NCI-H522
[33] = tested on: NCI/ADR-RES
[34] = tested on: OVCAR-3
[35] = tested on: OVCAR-4
[36] = tested on: OVCAR-5
[37] = tested on: OVCAR-8
[38] = tested on: PC-3
[39] = tested on: RPMI-8226
[40] = tested on: RXF 393
[41] = tested on: SF-268
[42] = tested on: SF-295
[43] = tested on: SF-539
[44] = tested on: SK-MEL-28
[45] = tested on: SK-MEL-2
[46] = tested on: SK-MEL-5
[47] = tested on: SK-OV-3
[48] = tested on: SN12C
[49] = tested on: SNB-19
[50] = tested on: SR
[51] = tested on: SW-620
[52] = tested on: T47D
[53] = tested on: TK-10
[54] = tested on: U-251
[55] = tested on: UACC-257
[56] = tested on: UACC-62
[57] = tested on: UO-31
[58] = tested on: SNB-75

O=c1cc(-c2ccccc2)[nH]c2ccc(N3CCCCC3)cc12
GI50 [1]: 0.0364 µM (active) | GI50 [2]: 0.0488 µM (active) | GI50 [3]: 0.048 µM (active) | GI50 [4]: 40.9 µM (inactive) | GI50 [5]: < 0.0221 µM (active) | GI50 [6]: < 0.0161 µM (active) | GI50 [7]: 0.017 µM (active) | GI50 [8]: 0.0468 µM (active) | GI50 [9]: > 100 µM (inactive) | GI50 [10]: < 0.0224 µM (active) | GI50 [11]: < 0.0184 µM (active) | GI50 [12]: 0.0329 µM | GI50 [13]: < 0.0126 µM (active) | GI50 [14]: 0.0305 µM (active) | GI50 [15]: < 0.01 µM (active) | GI50 [16]: 0.0566 µM (active) | GI50 [17]: < 0.0152 µM (active) | GI50 [18]: 0.0506 µM (active) | GI50 [19]: < 0.0129 µM (active) | GI50 [20]: 0.0142 µM (active) | GI50 [21]: 0.0465 µM (active) | GI50 [22]: 0.0166 µM (active) | GI50 [23]: 0.0428 µM (active) | GI50 [24]: 0.0501 µM (active) | GI50 [25]: < 0.01 µM (active) | GI50 [26]: < 0.01 µM (active) | GI50 [27]: 0.0605 µM (active) | GI50 [28]: > 100 µM (inactive) | GI50 [29]: 0.0193 µM (active) | GI50 [30]: 0.023 µM (active) | GI50 [31]: 0.0306 µM (active) | GI50 [32]: 0.0133 µM (active) | GI50 [33]: 0.0204 µM (active) | GI50 [34]: 0.0166 µM (active) | GI50 [35]: > 100 µM (inactive) | GI50 [36]: 4.35 µM (inactive) | GI50 [37]: 0.0462 µM (active) | GI50 [38]: 0.0297 µM (active) | GI50 [39]: 0.0333 µM (active) | GI50 [40]: < 0.0191 µM (active) | GI50 [41]: 0.228 µM (active) | GI50 [42]: < 0.0117 µM (active) | GI50 [43]: < 0.0159 µM (active) | GI50 [44]: 0.0267 µM (active) | GI50 [45]: 0.0476 µM (active) | GI50 [46]: < 0.0153 µM (active) | GI50 [47]: 0.0368 µM (active) | GI50 [48]: 0.0373 µM (active) | GI50 [49]: 0.0347 µM (active) | GI50 [50]: 0.0172 µM (active) | GI50 [51]: 0.0468 µM (active) | GI50 [52]: > 100 µM (inactive) | GI50 [53]: 0.998 µM (active) | GI50 [54]: 0.0171 µM (active) | GI50 [55]: 42.6 µM (inactive) | GI50 [56]: < 0.01 µM (active) | GI50 [57]: > 10 µM (inactive)

CCOC(=O)C(NC(=O)c1ccccc1)(Nc1ccc(S(=O)(=O)Nc2ccc(OC)nn2)cc1)C(F)(F)F (stereo unspecified)
GI50 [1]: > 100 µM (inactive) | GI50 [2]: > 100 µM (inactive) | GI50 [3]: > 100 µM (inactive) | GI50 [4]: > 100 µM (inactive) | GI50 [5]: > 100 µM (inactive) | GI50 [6]: > 100 µM (inactive) | GI50 [7]: > 100 µM (inactive) | GI50 [8]: > 100 µM (inactive) | GI50 [9]: > 100 µM (inactive) | GI50 [10]: > 100 µM (inactive) | GI50 [11]: > 100 µM (inactive) | GI50 [12]: > 100 µM | GI50 [13]: > 100 µM (inactive) | GI50 [14]: > 100 µM (inactive) | GI50 [15]: > 100 µM (inactive) | GI50 [16]: > 100 µM (inactive) | GI50 [17]: > 100 µM (inactive) | GI50 [18]: > 100 µM (inactive) | GI50 [19]: > 100 µM (inactive) | GI50 [20]: > 100 µM (inactive) | GI50 [21]: > 100 µM (inactive) | GI50 [22]: > 100 µM (inactive) | GI50 [23]: > 100 µM (inactive) | GI50 [24]: > 100 µM (inactive) | GI50 [25]: > 100 µM (inactive) | GI50 [26]: > 100 µM (inactive) | GI50 [27]: > 100 µM (inactive) | GI50 [28]: > 100 µM (inactive) | GI50 [29]: > 100 µM (inactive) | GI50 [30]: > 100 µM (inactive) | GI50 [31]: > 100 µM (inactive) | GI50 [32]: > 100 µM (inactive) | GI50 [33]: > 100 µM (inactive) | GI50 [34]: > 100 µM (inactive) | GI50 [35]: > 100 µM (inactive) | GI50 [36]: > 100 µM (inactive) | GI50 [37]: > 100 µM (inactive) | GI50 [38]: > 100 µM (inactive) | GI50 [39]: > 100 µM (inactive) | GI50 [40]: > 100 µM (inactive) | GI50 [41]: > 100 µM (inactive) | GI50 [42]: > 100 µM (inactive) | GI50 [43]: > 100 µM (inactive) | GI50 [44]: > 100 µM (inactive) | GI50 [45]: > 100 µM (inactive) | GI50 [46]: > 100 µM (inactive) | GI50 [47]: > 100 µM (inactive) | GI50 [48]: > 100 µM (inactive) | GI50 [49]: > 100 µM (inactive) | GI50 [58]: > 100 µM (inactive) | GI50 [50]: > 100 µM (inactive) | GI50 [51]: > 100 µM (inactive) | GI50 [52]: > 100 µM (inactive) | GI50 [53]: > 100 µM (inactive) | GI50 [54]: > 100 µM (inactive) | GI50 [55]: > 100 µM (inactive) | GI50 [56]: > 100 µM (inactive) | GI50 [57]: > 100 µM (inactive)

COC1CN(C)/C(=N\c2cccc3ccccc23)S1 (stereo unspecified)
GI50 [1]: > 10 µM (inactive) | GI50 [2]: > 10 µM (inactive) | GI50 [3]: > 10 µM (inactive) | GI50 [4]: > 10 µM (inactive) | GI50 [5]: > 10 µM (inactive) | GI50 [6]: > 10 µM (inactive) | GI50 [7]: > 10 µM (inactive) | GI50 [8]: > 10 µM (inactive) | GI50 [10]: > 10 µM (inactive) | GI50 [11]: > 10 µM (inactive) | GI50 [12]: > 10 µM | GI50 [13]: > 10 µM (inactive) | GI50 [14]: > 10 µM (inactive) | GI50 [15]: > 10 µM (inactive) | GI50 [16]: > 10 µM (inactive) | GI50 [17]: > 10 µM (inactive) | GI50 [18]: > 10 µM (inactive) | GI50 [19]: > 10 µM (inactive) | GI50 [20]: > 10 µM (inactive) | GI50 [21]: > 10 µM (inactive) | GI50 [22]: > 10 µM (inactive) | GI50 [23]: > 10 µM (inactive) | GI50 [24]: > 10 µM (inactive) | GI50 [25]: > 10 µM (inactive) | GI50 [26]: > 10 µM (inactive) | GI50 [27]: > 10 µM (inactive) | GI50 [28]: > 10 µM (inactive) | GI50 [30]: > 10 µM (inactive) | GI50 [32]: > 10 µM (inactive) | GI50 [33]: > 10 µM (inactive) | GI50 [35]: > 10 µM (inactive) | GI50 [36]: > 10 µM (inactive) | GI50 [37]: > 10 µM (inactive) | GI50 [38]: > 10 µM (inactive) | GI50 [39]: > 10 µM (inactive) | GI50 [41]: > 10 µM (inactive) | GI50 [42]: 2.75 µM (inactive) | GI50 [43]: > 10 µM (inactive) | GI50 [44]: > 10 µM (inactive) | GI50 [46]: > 10 µM (inactive) | GI50 [47]: > 10 µM (inactive) | GI50 [48]: > 10 µM (inactive) | GI50 [49]: > 10 µM (inactive) | GI50 [58]: > 10 µM (inactive) | GI50 [50]: > 10 µM (inactive) | GI50 [51]: > 10 µM (inactive) | GI50 [52]: > 10 µM (inactive) | GI50 [53]: > 10 µM (inactive) | GI50 [54]: > 10 µM (inactive) | GI50 [55]: > 10 µM (inactive) | GI50 [56]: > 10 µM (inactive)
